Laboratory results from ChEMBL document CHEMBL5046228 (Eur J Med Chem, 2022).

Assays:
in vitro [1] = settings: human
HCC827 = assay: Antiproliferative activity against human HCC827 cells expressing EGFR del119 mutant assessed as inhibition in cell viability after 72 hrs by CCK8 assay; format: functional, cell-based; settings: HCC827, 72 h
A549 = assay: Antiproliferative activity against human A549 cells expressing wild type EGFR assessed as inhibition in cell viability after 72 hrs by CCK8 assay; format: functional, cell-based; settings: A549, 72 h
[2] = target: Epidermal growth factor receptor (Homo sapiens, UniProt P00533, C797S/T790M); assay: Inhibition of EGFR T790M/C797S double mutant (unknown origin) using flurogenic substrate in presence of ATP by HTRF assay
Chain of Epidermal growth factor receptor (Homo sapiens, UniProt P00533, C797S/T790M) (P00533 25-1210 T790M/C797S limits assumed): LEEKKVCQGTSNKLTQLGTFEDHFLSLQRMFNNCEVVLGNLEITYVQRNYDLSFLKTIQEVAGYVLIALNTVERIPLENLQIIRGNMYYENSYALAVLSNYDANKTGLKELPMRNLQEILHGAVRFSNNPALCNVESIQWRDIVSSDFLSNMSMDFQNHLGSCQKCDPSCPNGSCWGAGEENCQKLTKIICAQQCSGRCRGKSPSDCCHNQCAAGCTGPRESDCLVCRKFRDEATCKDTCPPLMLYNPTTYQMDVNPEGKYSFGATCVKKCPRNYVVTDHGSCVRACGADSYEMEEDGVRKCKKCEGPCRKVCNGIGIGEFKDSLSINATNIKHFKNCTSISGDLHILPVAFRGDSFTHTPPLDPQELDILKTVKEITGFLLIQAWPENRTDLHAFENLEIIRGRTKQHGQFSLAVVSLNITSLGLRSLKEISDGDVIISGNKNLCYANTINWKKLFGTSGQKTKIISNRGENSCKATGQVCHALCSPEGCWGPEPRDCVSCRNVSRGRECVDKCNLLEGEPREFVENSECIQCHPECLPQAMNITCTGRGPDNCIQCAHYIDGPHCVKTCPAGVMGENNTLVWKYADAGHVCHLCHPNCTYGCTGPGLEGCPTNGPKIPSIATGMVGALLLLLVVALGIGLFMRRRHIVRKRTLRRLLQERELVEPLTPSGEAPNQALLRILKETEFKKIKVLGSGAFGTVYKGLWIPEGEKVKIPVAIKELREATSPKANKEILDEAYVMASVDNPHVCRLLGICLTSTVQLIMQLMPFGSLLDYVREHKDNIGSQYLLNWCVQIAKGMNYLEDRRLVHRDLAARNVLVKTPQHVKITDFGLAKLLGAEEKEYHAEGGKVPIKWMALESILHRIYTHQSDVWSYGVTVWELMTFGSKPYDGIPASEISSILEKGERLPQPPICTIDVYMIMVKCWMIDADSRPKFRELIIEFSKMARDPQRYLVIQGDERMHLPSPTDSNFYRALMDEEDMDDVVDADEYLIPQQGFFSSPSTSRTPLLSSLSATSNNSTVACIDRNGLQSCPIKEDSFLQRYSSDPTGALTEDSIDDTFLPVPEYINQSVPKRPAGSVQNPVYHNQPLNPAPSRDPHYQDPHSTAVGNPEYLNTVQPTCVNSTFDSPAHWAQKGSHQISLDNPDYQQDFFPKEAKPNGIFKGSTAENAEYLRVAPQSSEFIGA

in vitro [3] = settings: human; remark: listed apart in the source
[4] = target: Epidermal growth factor receptor (Homo sapiens, UniProt P00533, EX19DEL); assay: Inhibition of EGFR del19 (unknown origin) using flurogenic substrate in presence of ATP by HTRF assay
Chain of Epidermal growth factor receptor (Homo sapiens, UniProt P00533, EX19DEL) (P00533 whole entry, looked up, stated change not applied): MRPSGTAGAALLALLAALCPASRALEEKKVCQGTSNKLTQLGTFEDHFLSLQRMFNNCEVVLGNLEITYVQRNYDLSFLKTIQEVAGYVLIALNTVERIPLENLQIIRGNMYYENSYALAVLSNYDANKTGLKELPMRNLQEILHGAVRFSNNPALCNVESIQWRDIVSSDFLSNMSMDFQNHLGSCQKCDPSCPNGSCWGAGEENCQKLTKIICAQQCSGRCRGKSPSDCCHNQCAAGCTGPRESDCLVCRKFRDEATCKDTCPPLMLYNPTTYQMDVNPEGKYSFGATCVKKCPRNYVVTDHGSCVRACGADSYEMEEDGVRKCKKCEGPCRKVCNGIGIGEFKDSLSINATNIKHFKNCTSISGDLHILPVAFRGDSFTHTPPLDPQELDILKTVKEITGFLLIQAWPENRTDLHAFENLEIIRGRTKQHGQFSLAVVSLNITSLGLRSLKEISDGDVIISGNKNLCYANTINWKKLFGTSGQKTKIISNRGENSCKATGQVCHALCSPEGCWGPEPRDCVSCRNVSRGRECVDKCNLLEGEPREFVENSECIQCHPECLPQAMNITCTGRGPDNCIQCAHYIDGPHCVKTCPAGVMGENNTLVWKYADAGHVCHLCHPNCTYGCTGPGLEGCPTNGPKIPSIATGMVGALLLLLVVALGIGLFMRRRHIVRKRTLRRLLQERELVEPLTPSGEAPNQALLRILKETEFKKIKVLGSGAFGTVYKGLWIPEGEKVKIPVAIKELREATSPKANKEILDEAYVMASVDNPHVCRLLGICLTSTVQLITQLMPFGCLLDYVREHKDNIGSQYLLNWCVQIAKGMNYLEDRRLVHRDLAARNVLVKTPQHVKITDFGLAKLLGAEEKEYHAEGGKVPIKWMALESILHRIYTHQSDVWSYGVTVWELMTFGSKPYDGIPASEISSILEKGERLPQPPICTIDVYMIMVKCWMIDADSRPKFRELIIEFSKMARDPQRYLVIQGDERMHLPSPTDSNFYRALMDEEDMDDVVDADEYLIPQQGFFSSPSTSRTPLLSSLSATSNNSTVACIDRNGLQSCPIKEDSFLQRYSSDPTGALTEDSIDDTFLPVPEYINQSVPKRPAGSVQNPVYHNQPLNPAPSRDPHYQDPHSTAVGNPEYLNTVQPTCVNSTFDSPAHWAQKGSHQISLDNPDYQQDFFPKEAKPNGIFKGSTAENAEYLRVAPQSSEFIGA

[5] = Selectivity index, ratio of IC50 Inhibition of wild type EGFR (unknown origin) to IC50 for Inhibition of EGFR T790M/C797S double mutant (unknown origin)
[6] = target: Epidermal growth factor receptor (Homo sapiens, UniProt P00533); assay: Inhibition of wild type EGFR (unknown origin) using flurogenic substrate in presence of ATP by HTRF assay
Chain of Epidermal growth factor receptor (Homo sapiens, UniProt P00533) (P00533 whole entry): as the sequence (P00533 whole entry, looked up, stated change not applied) above

NCI-H1975 [7] = assay: cells; format: functional, cell-based; settings: Homo sapiens, NCI-H1975, 72 h
NCI-H1299 [8] = assay: Antiproliferative activity against human NCI-H1299 cells expressing wild type EGFR assessed as inhibition in cell viability after 72 hrs by CCK8 assay; format: functional, cell-based; settings: NCI-H1299, 72 h
NCI-H1299 [9] = assay: Induction of apoptosis in human NCI-H1299 cells assessed as increase in late apoptotic cells at 2.5 uM after 36 hrs by annexin-V-FITC/PI staining based flow cytometric analysis (reference value: 4.39%); format: functional
NCI-H1299 [10] = assay: Induction of cell cycle arrest in human NCI-H1299 cells assessed as accumulation at S phase at 2.5 uM after 36 hrs by PI staining based flow cytometry analysis (reference value: 24.8%); format: functional
NCI-H1299 [11] = assay: Induction of apoptosis in human NCI-H1299 cells assessed as increase in early apoptotic cells at 2.5 uM after 36 hrs by annexin-V-FITC/PI staining based flow cytometric analysis (reference value: 0.79%); format: functional
NCI-H1975 [12] = assay: Induction of apoptosis in human NCI-H1975 cells assessed as increase in early apoptotic cells at 2.5 uM after 36 hrs by annexin-V-FITC/PI staining based flow cytometric analysis (reference value: 1.24%); format: functional
NCI-H1299 [13] = assay: Induction of cell cycle arrest in human NCI-H1299 cells assessed as accumulation at G2/M phase at 2.5 uM after 36 hrs by PI staining based flow cytometry analysis (reference value: 5.6%); format: functional
NCI-H1975 [14] = assay: Induction of apoptosis in human NCI-H1975 cells assessed as increase in viable cells at 2.5 uM after 36 hrs by annexin-V-FITC/PI staining based flow cytometric analysis (reference value: 94.6%); format: functional
NCI-H1975 [15] = assay: Induction of cell cycle arrest in human NCI-H1975 cells assessed as accumulation at G0/G1 phase at 2.5 uM after 36 hrs by PI staining based flow cytometry analysis (reference value: 24.2%); format: functional
NCI-H1975 [16] = assay: Induction of apoptosis in human NCI-H1975 cells assessed as increase in late apoptotic cells at 2.5 uM after 36 hrs by annexin-V-FITC/PI staining based flow cytometric analysis (reference value: 3.85%); format: functional
NCI-H1975 [17] = assay: Induction of cell cycle arrest in human NCI-H1975 cells assessed as accumulation at S phase at 2.5 uM after 36 hrs by PI staining based flow cytometry analysis (reference value: 32.7 %); format: functional
NCI-H1299 [18] = assay: Induction of cell cycle arrest in human NCI-H1299 cells assessed as accumulation at G0/G1 phase at 2.5 uM after 36 hrs by PI staining based flow cytometry analysis (reference value: 70.2%); format: functional
NCI-H1975 [19] = assay: Induction of cell cycle arrest in human NCI-H1975 cells assessed as accumulation at G2/M phase at 2.5 uM after 36 hrs by PI staining based flow cytometry analysis (reference value: 43.1%); format: functional
NCI-H1975 [20] = assay: Induction of apoptosis in human NCI-H1975 cells assessed as increase in necrotic cells at 2.5 uM after 36 hrs by annexin-V-FITC/PI staining based flow cytometric analysis (reference value: 0.35%); format: functional
NCI-H1299 [21] = assay: Induction of apoptosis in human NCI-H1299 cells assessed as increase in necrotic cells at 2.5 uM after 36 hrs by annexin-V-FITC/PI staining based flow cytometric analysis (reference value: 0.75%); format: functional
NCI-H1299 [22] = assay: Induction of apoptosis in human NCI-H1299 cells assessed as increase in viable cells at 2.5 uM after 36 hrs by annexin-V-FITC/PI staining based flow cytometric analysis (reference value: 94.1%); format: functional

Structure (SMILES)	IC50 (HCC827)	IC50 (A549)	IC50 [2]	IC50 [4]	Ratio IC50 [5]	IC50 [6]	IC50 (NCI-H1299 [8])	other results
C=CC(=O)Nc1cc(Nc2nccc(Nc3cn(C)c4ccccc34)n2)c(OC)cc1N(C)CCN(C)Cc1ccc(Br)cc1	6460 nM	> 100000 nM	8.13 nM	143 nM	304	2470 nM	> 100000 nM	selectivity ratio (in vitro [1]): 2640; selectivity ratio (in vitro [3]): 2640; IC50 (NCI-H1975 [7]): 29.7 nM
C#CCN(C)CCN(C)c1cc(OC)c(Nc2nccc(Nc3ccn(C)n3)n2)cc1NC(=O)C=C	–	–	8.58 nM	22.3 nM	5.92	50.8 nM	–	–
C=CC(=O)Nc1cc(Nc2nccc(Nc3cnn(CC)c3)n2)c(OC)cc1N(C)CCN(C)C	–	–	8.02 nM	18.7 nM	12.5	101 nM	–	–
C=CC(=O)Nc1cc(Nc2nccc(Nc3cn(C)c4ccccc34)n2)c(OC)cc1N(C)CCN(C)C(=O)OC	–	–	12.3 nM	213 nM	235	2910 nM	–	–
C=CC(=O)Nc1cc(Nc2nccc(Nc3cnn(C)c3)n2)c(OC)cc1N(C)CCN(C)C	–	–	21.4 nM	54.3 nM	23.1	495 nM	–	–
C=CCCN(C)CCN(C)c1cc(OC)c(Nc2nccc(Nc3cn(C)c4ccccc34)n2)cc1NC(=O)C=C	24.7 nM	1380 nM	2 nM	13.1 nM	21.3	42.7 nM	1770 nM	selectivity ratio (in vitro [1]): 687; selectivity ratio (in vitro [3]): 881; IC50 (NCI-H1975 [7]): 2.01 nM
C=CC(=O)Nc1cc(Nc2nccc(Nc3ccn(C)n3)n2)c(OC)cc1N(C)CCN(C)CC(=C)C	–	–	397 nM	625 nM	8.02	3180 nM	–	–
C=CC(=O)Nc1cc(Nc2nccc(Nc3cn(C)nc3C)n2)c(OC)cc1N(C)CCN(C)C	–	–	5.65 nM	11.6 nM	12.6	71.3 nM	–	–
C=CC(=O)Nc1cc(Nc2nccc(Nc3cn(C)c4ccccc34)n2)c(OC)cc1N(C)CCN(C)C(=O)c1ccc(Br)cc1	7150 nM	> 100000 nM	12.5 nM	301 nM	> 797	> 10000 nM	> 100000 nM	selectivity ratio (in vitro [1]): 3370; selectivity ratio (in vitro [3]): 3370; IC50 (NCI-H1975 [7]): 37.9 nM
C=CC(=O)Nc1cc(Nc2nccc(Nc3ccn(C)n3)n2)c(OC)cc1N(C)CCN(C)C	–	–	6.2 nM	12.6 nM	15.6	96.5 nM	–	–
C=CC(=O)Nc1cc(Nc2nccc(Nc3cn(C)c4ccccc34)n2)c(OC)cc1N(C)CCN(C)CC(=O)OC	346 nM	5190 nM	5.75 nM	46.4 nM	78.8	453 nM	5300 nM	selectivity ratio (in vitro [1]): 624; selectivity ratio (in vitro [3]): 637; IC50 (NCI-H1975 [7]): 8.31 nM
C=CC(=O)Nc1cc(Nc2nccc(Nc3ccn(C)n3)n2)c(OC)cc1N(C)CCN(C)C(=O)OC	–	–	502 nM	288 nM	9.84	4930 nM	–	–
C=CC(=O)Nc1cc(Nc2nccc(Nc3cn(C)c4ccccc34)n2)c(OC)cc1N(C)CCN(C)CC(=C)C	–	–	5.75 nM	64 nM	31.4	181 nM	–	–
C=CC(=O)Nc1cc(Nc2nccc(Nc3ccn(C)n3)n2)c(OC)cc1N(C)CCN(C)CC(=O)OC	–	–	42.4 nM	106 nM	22.5	952 nM	–	–
C=CC(=O)Nc1cc(Nc2nccc(Nc3cn(C)c4ccccc34)n2)c(OC)cc1N(C)CCN(C)C(=O)C#CC	–	–	58 nM	949 nM	> 172	> 10000 nM	–	–
C=CC(=O)Nc1cc(Nc2nccc(Nc3cn(C)c4ccccc34)n2)c(OC)cc1N(C)CCN(C)C(=O)C=C	–	–	36.6 nM	723 nM	> 273	> 10000 nM	–	–
C=CC(=O)Nc1cc(Nc2nccc(Nc3cn(C)c4ccccc34)n2)c(OC)cc1N(C)CCN(C)Cc1ccccc1	117 nM	2610 nM	–	–	–	–	3980 nM	IC50 (NCI-H1975 [7]): 4.02 nM
C=CC(=O)Nc1cc(Nc2nccc(-c3cn(C)c4ccccc34)n2)c(OC)cc1N(C)CCN(C)C [OSIMERTINIB]	1.73 nM	335 nM	–	–	–	–	2840 nM	Activity (NCI-H1299 [9]): 7.44%; Activity (NCI-H1299 [10]): 24.3%; Activity (NCI-H1299 [11]): 1.47%; Activity (NCI-H1975 [12]): 40.8%; Activity (NCI-H1299 [13]): 8.4%; Activity (NCI-H1975 [14]): 41.1%; Activity (NCI-H1975 [15]): 17.1%; Activity (NCI-H1975 [16]): 18.1%; Activity (NCI-H1975 [17]): 17.5%; Activity (NCI-H1299 [18]): 67.3%; Activity (NCI-H1975 [19]): 65.4%; Activity (NCI-H1975 [20]): 0.016%; Activity (NCI-H1299 [21]): 0.43%; Activity (NCI-H1299 [22]): 90.7%
